Data taken from patent US20160166598A1, “A METHOD FOR TREATING INFECTION, SEPSIS AND INJURY” (priority 2013, published 2016).

Key:
[1] = humans, oral and/or intravenous 10, 25, 50, 100 mg/kg; cited from earlier work
[2] = biological target: human NK(1) receptor (Homo sapiens, UniProt P25103); conditions: cited from earlier work
[3] = test system: isolated guinea-pig mesenteric artery; experiment: Relaxation of isolated mesenteric artery, pressure myograph (Ex 4); conditions: for relaxation / artery diameter: endothelium present (adenosine, AL: with or without); for relaxation of isolated intact mesenteric artery: luminal or abluminal, 0.001 to 1 mM
Procedure: Male guinea pigs (250-300 g) were anesthetised and placed in a cradle and the abdomen opened. Second order mesenteric artery branches were isolated and mounted in a pressure myograph (see FIG. 4) under constant pressure of 60 mmHg and perfusion (luminal flow) of 100 uL/min with Krebs-Henseleit buffer (37° C.). Artery diameter was continuously measured using videomicroscopy (see FIG. 4). For the relaxation/vasodilation experiments arteries were equilibrated and then constricted with 10^−8 M arginine vasopressin (AVP). Adenosine, lidocaine or adenosine-lidocaine together were administered 2) luminally and 2) abluminally and concentration curves were obtained. Stock solutions of adenosine and lidocaine alone or adenosine-lidocaine combined were made in deionized water to 20 mM. A range of volumes were pipetted to provide contact concentrations with the vessel lumen or outer wall that ranged from 0.001 to 1 mM. At the end of experiments, arteries were dilated using calcium-free solution to obtain 100% relaxation. A number of arteries were denuded by introducing 5 ml air into the lumen with flow rate 1000 μl/min. The air outflow was then clamped until the intraluminal pressure reached 70 mmHg, flow rate was reduced to 2 μl/min and the vessel remained pressurized for 10 minutes

human NK(1) receptor, sequence (P25103 whole entry): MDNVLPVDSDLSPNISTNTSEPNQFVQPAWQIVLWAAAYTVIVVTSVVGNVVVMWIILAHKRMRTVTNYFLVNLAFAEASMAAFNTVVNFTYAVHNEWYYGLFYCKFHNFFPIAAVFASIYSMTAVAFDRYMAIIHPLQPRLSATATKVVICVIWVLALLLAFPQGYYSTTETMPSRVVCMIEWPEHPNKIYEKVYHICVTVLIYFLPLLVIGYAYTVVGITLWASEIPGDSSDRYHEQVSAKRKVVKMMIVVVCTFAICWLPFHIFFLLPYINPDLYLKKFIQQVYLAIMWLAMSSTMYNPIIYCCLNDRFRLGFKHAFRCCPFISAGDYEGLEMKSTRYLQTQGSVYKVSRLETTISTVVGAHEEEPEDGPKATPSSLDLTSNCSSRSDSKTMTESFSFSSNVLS

Row | SMILES | relaxation / artery diameter [3] | relaxation of isolated intact mesenteric artery [3] | also measured
1 | NC(=O)c1ncn([C@@H]2O[C@H](CO)[C@@H](O)[C@H]2O)c1N [Acadesine, 5-amino-4-imidazole carboxamide ribonucleoside] | – | – | safety [1]: safe in humans
2 | Cc1cccc(C)c1NC(=O)CN1CCN(C2CCN(C(=O)c3cc(C(F)(F)F)cc(C(F)(F)F)c3)C(Cc3ccccc3)C2)CC1 (centres unmarked) [R116301] | – | – | Ki [2]: 0.45 nM; selectivity toward NK(2) and NK(3) receptors [2]: over 200 fold
3 | Nc1ncnc2c1ncn2[C@@H]1O[C@H](CO)[C@@H](O)[C@H]1O [adenosine] | relaxed the mesenteric artery in a dose dependent manner | increased relaxation | –
4 | CCN(CC)CC(=O)Nc1c(C)cccc1C [lidocaine] | did not significantly change mesenteric artery diameter | failed to produce relaxation | relaxation ([3]; endothelium absent): relaxed the artery
